The numbers were not newly measured in US4134792A, “Specific binding assay with an enzyme modulator as a labeling substance” (Miles Laboratories, Inc., priority 1976, dated 1979), which cites them from elsewhere.

Like-named read-outs stand apart in the source and are kept apart here.

What all share (set-up): key: inhibitory or negative effectors are indicated by (-); stimulatory or positive effectors are indicated by (+)
In data set [1] the test system is L-glutamine-D-fructose-6-phosphate transaminase. The following applies: rat liver; cited from earlier work.
Data set [2] concerns glycogen synthetase. To be noted: yeast and lamb muscle; cited from earlier work.
The test system of data set [3] is threonine aspartokinase. The following applies: E. coli; cited from earlier work.
The subject of data set [4] is homoserine dehydrogenase. The following applies: E. coli; cited from earlier work.
In data set [5] the test system is homoserine dehydrogenase. To be noted: R. rubrum; cited from earlier work.

Regarding `CC(=O)N[C@H]1[C@@H](OP(=O)(O)OP(=O)(O)OC[C@H]2O[C@@H](n3ccc(=O)[nH]c3=O)[C@H](O)[C@@H]2O)O[C@H](CO)[C@@H](O)[C@@H]1O` [uridine diphosphate (UDP)-N-acetyl-glucosamine], the “allosteric effector: inhibitory (-) or stimulatory (+)” value (from here on “allosteric effector: inhibitory”) in data set [1] is “-”. `O=P(O)(O)OC[C@H]1OC(O)[C@H](O)[C@@H](O)[C@@H]1O` (some centres unmarked) [glucose-6-phosphate]: the “allosteric effector: inhibitory” value in data set [2] is “+”. With `C[C@@H](O)[C@H](N)C(=O)O` [L-threonine], the “allosteric effector: inhibitory” value in data set [3], in data set [4] and in data set [5] was “-” throughout.
